What all share (assay type): biochemical
Assay [1] has as its target T1, human CSNK1A1 (Homo sapiens (Human), UniProt P48729). Kind of assay: CSNK1A1 Assay 2 (ADP-Glo, 1 μM ATP). Particulars: substrate biotin-Ahx-KRRRAL-pS-VASLPGL, read-out: CSNK1A1 Assay 2 IC50 [mol/l] (median). Summed up: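 Full-length human CSNK1A1 as an N-terminal GST fusion (baculovirus/insect cells) with biotinylated peptide substrate biotin-Ahx-KRRRAL-pS-VASLPGL and 1 μM ATP, in HEPES pH 7.5 buffer. Compounds were pre-incubated with enzyme (~0.0375 ng/μL) for 15 min at 22 °C. Generated ADP was read by ADP-Glo luminescence as the activity measure.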

Assay [2] addresses T1, human CSNK1A1. Nature of the assay: CSNK1A1 High ATP Assay (ADP-Glo, 1 mM ATP). Particulars: read-out: CSNK1A1 high ATP assay IC50 [mol/l] (median). An outline of the steps:
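GST-tagged full-length human CSNK1A1 from baculovirus-infected insect cells (typically about 0.4 ng/μL), pre-incubated with compound 15 min at 22 °C. Reaction with biotinylated peptide biotin-Ahx-KRRRAL-pS-VASLPGL at 1 mM ATP. ADP formed read by ADP-Glo luminescence.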

Assay [3] has as its target wild-type Epidermal Growth Factor Receptor (EGFR) (Homo sapiens (Human), UniProt P00533). Nature of the assay: WT-EGFR Kinase Assay (TR-FRET, 2 mM ATP).
Assay [4] has as its target human CSNK1D (Homo sapiens (Human), UniProt P48730). Kind of assay: CSNK1D Assay (ADP-Glo, 1 μM ATP). Particulars: read-out: CSNK1D IC50 [mol/l] (median). An outline of the steps: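 GST-tagged full-length human CSNK1D from baculovirus-infected insect cells, typically ~0.5 ng/μL, with biotinylated peptide substrate and 1 μM ATP in HEPES pH 7.5 buffer. Compound is preincubated with enzyme 15 min at 22 °C. ADP formed is quantified by ADP-Glo luminescence.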

Setting [5] is: read-out: EGFR Wildtyp- 2 mM ATP IC50 [mol/l] (median).
Setting [6] is: EGFR Wildtyp- 2 mM ATP IC50 [mol/l] (median).

Structures are written as SMILES. Where two headings read alike, the source gives them in different places.

This note sets out measurements from patent publication US12227501B2, “3-amino-2-[2-(acylamino)pyridin-4-yl]-1,5,6,7-tetrahydro-4h-pyrrolo[3,2-c]pyridin-4-one as CSNK1 inhibitors” (Bayer Aktiengesellschaft, priority 2019, dated 2025).

T1 sequence (P48729 whole entry, the tested form may be a part): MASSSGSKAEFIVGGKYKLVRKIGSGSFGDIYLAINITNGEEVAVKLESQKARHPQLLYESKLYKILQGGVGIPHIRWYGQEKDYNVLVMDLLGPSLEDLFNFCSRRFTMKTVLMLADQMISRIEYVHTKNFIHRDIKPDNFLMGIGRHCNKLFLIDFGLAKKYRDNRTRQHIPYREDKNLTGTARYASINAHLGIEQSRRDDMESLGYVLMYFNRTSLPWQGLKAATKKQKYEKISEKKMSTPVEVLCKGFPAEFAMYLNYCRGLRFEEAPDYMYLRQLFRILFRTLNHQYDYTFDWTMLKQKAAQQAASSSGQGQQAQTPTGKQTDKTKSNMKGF
Chain of wild-type Epidermal Growth Factor Receptor (EGFR) (P00533 669-1210): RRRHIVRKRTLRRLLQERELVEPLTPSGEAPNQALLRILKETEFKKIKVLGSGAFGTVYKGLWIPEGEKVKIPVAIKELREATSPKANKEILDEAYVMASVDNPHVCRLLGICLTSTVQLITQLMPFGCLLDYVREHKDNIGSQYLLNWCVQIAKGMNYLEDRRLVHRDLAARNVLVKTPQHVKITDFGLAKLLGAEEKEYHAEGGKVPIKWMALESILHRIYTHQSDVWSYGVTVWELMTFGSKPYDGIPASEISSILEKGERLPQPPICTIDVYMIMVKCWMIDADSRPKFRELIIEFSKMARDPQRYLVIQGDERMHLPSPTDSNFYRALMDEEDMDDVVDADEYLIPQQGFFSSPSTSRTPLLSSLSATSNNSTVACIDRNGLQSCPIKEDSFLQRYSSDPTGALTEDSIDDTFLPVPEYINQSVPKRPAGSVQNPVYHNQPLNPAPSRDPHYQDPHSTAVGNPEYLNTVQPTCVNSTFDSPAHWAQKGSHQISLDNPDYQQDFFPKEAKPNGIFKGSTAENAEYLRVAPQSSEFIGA
Chain of human CSNK1D (P48730 whole entry): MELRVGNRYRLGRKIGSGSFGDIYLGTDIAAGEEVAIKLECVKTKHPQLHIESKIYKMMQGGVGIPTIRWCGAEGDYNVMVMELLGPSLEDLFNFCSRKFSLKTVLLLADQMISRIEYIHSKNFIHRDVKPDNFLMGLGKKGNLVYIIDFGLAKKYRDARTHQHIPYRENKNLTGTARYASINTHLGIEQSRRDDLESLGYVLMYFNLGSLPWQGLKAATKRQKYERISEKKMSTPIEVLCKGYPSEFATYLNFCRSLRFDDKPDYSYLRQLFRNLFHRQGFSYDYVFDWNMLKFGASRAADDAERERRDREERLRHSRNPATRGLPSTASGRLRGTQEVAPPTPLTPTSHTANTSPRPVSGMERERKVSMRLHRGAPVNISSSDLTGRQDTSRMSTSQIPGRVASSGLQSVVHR

As to `CC(C(=O)Nc1cc(-c2[nH]c3c(c2Nc2ccccc2F)C(=O)N(C)CC3)ccn1)c1ccc(F)cc1` (single isomer, unassigned) [Example 42, N-{4-[3-(2-fluoroanilino)-5-methyl-4-oxo-4,5,6,7-tetrahydro-1H-pyrrolo[3,2-c]pyridin-2-yl]pyridin-2-yl}-2-(4-fluorophenyl)propanamide], the IC50 in assay [1] is 2.4 nM; in assay [2] it was 57.2 nM; in assay [3] (setting [5]), above 20 µM; in assay [4], 4.92 nM.
As to `CN1C(=O)c2c([nH]c(-c3ccnc(NC(=O)C(CC(F)F)c4ccc(F)cc4)c3)c2Nc2ccccc2F)CC1(C)C` (single isomer, unassigned) [Example 46, 4,4-difluoro-N-{4-[3-(2-fluoroanilino)-5,6,6-trimethyl-4-oxo-4,5,6,7-tetrahydro-1H-pyrrolo[3,2-c]pyridin-2-yl]pyridin-2-yl}-2-(4-fluorophenyl)butanamide], the IC50 in assay [1] is 6.64 nM; in assay [2], 119 nM; in assay [3] (setting [6]), above 20 µM; in assay [4] it was 8.33 nM.
Regarding `CN1C(=O)c2c([nH]c(-c3ccnc(NC(=O)C(CC(F)F)c4ccc(F)cc4)c3)c2Nc2ccccc2F)CC1(C)C` (single isomer, unassigned) [Example 47, 4,4-difluoro-N-{4-[3-(2-fluoroanilino)-5,6,6-trimethyl-4-oxo-4,5,6,7-tetrahydro-1H-pyrrolo[3,2-c]pyridin-2-yl]pyridin-2-yl}-2-(4-fluorophenyl)butanamide], the IC50 is 163 nM in assay [1], above 20000 nM in assay [2], above 20 µM in assay [3] (setting [5]) and 151 nM in assay [4].
For `CC1(C)Cc2[nH]c(-c3ccnc(NC(=O)C(CC(F)F)c4ccc(F)cc4)c3)c(Nc3ccccc3)c2C(=O)N1` (single isomer, unassigned) [Example 50, N-[4-(3-anilino-6,6-dimethyl-4-oxo-4,5,6,7-tetrahydro-1H-pyrrolo[3,2-c]pyridin-2-yl)pyridin-2-yl]-4,4-difluoro-2-(4-fluorophenyl)butanamide], the IC50 in assay [1] was 51 nM; in assay [2], 2460 nM; in assay [3] (setting [5]), above 20 µM; in assay [4], 68.2 nM.
Consider `CC(C(=O)Nc1cc(-c2[nH]c3c(c2Nc2ccccc2)C(=O)N(C)CC3)ccn1)c1ccncc1` (single isomer, unassigned) [Example 74, N-[4-(3-anilino-5-methyl-4-oxo-4,5,6,7-tetrahydro-1H-pyrrolo[3,2-c]pyridin-2-yl)pyridin-2-yl]-2-(pyridin-4-yl)propanamide], for which the IC50 in assay [1] is 33.9 nM; in assay [2] it was 599 nM; in assay [3] (setting [6]), above 20 µM; in assay [4], 55.1 nM.
For `CC1(C)Cc2[nH]c(-c3ccnc(NC(=O)C(CC(F)F)c4ccc(F)cc4)c3)c(Nc3ccccc3)c2C(=O)N1` (single isomer, unassigned; (+)) [Example 49, (+)-N-[4-(3-anilino-6,6-dimethyl-4-oxo-4,5,6,7-tetrahydro-1H-pyrrolo[3,2-c]pyridin-2-yl)pyridin-2-yl]-4,4-difluoro-2-(4-fluorophenyl)butanamide], the IC50 is 4.57 nM in assay [1], 19.6 nM in assay [2], above 20 µM in assay [3] (setting [6]) and 7.3 nM in assay [4].
As to `O=C1NC2(CCC2)Cc2[nH]c(-c3ccnc(NC(=O)C(CC(F)F)c4ccc(F)cc4)c3)c(Nc3ccccc3)c21` (single isomer, unassigned; (+)) [Example 55, (+)-N-[4-(3′-anilino-4′-oxo-1′,4′,5′,7′-tetrahydrospiro[cyclobutane-1,6′-pyrrolo[3,2-c]pyridin]-2′-yl)pyridin-2-yl]-4,4-difluoro-2-(4-fluorophenyl)butanamide], the IC50 was determined as 4.25 nM in assay [1], 9.1 nM in assay [2], 1.17 µM in assay [3] (setting [6]) and 4.38 nM in assay [4].
For `CN(C)CCCC(C(=O)Nc1cc(-c2[nH]c3c(c2Nc2ccccc2)C(=O)N(C)CC3)ccn1)c1ccccc1` (single isomer, unassigned; (+)) [Example 60, (+)-N-[4-(3-anilino-5-methyl-4-oxo-4,5,6,7-tetrahydro-1H-pyrrolo[3,2-c]pyridin-2-yl)pyridin-2-yl]-5-(dimethylamino)-2-phenylpentanamide], the IC50 in assay [1] stood at 7.34 nM; in assay [2], 437 nM; in assay [3] (setting [6]), 7.34 µM; in assay [4], 11.8 nM.
Take `CN1CCc2[nH]c(-c3ccnc(NC(=O)C(CC(F)F)c4ccc(F)cc4)c3)c(Nc3ccccc3)c2C1=O` (single isomer, unassigned; (+)) [Example 63, (+)-N-[4-(3-anilino-5-methyl-4-oxo-4,5,6,7-tetrahydro-1H-pyrrolo[3,2-c]pyridin-2-yl)pyridin-2-yl]-4,4-difluoro-2-(4-fluorophenyl)butanamide]: the IC50 was determined as 2.12 nM in assay [1], 12.1 nM in assay [2], 6.68 µM in assay [3] (setting [6]) and 4 nM in assay [4].
In the case of `CC(C(=O)Nc1cc(-c2[nH]c3c(c2Nc2ccccc2)C(=O)N(C)CC3)ccn1)c1ccncc1` (single isomer, unassigned; (+)) [Example 73, (+)-N-[4-(3-anilino-5-methyl-4-oxo-4,5,6,7-tetrahydro-1H-pyrrolo[3,2-c]pyridin-2-yl)pyridin-2-yl]-2-(pyridin-4-yl)propanamide], the IC50 in assay [1] worked out at 2.38 nM; in assay [2], 63.3 nM; in assay [3] (setting [6]), 6.78 µM; in assay [4], 4.46 nM.
For `CCC(C(=O)Nc1cc(-c2[nH]c3c(c2Nc2ccccc2)C(=O)N(C)CC3)ccn1)c1ccc(F)cc1` (single isomer, unassigned; (+)) [Example 77, (+)-N-[4-(3-anilino-5-methyl-4-oxo-4,5,6,7-tetrahydro-1H-pyrrolo[3,2-c]pyridin-2-yl)pyridin-2-yl]-2-(4-fluorophenyl)butanamide], the IC50 in assay [1] is 2.12 nM; in assay [2] it was 86.7 nM; in assay [3] (setting [5]), above 20 µM; in assay [4], 4.43 nM.
In the case of `CC(C(=O)Nc1cc(-c2[nH]c3c(c2Nc2ccccc2)C(=O)N(C)CC3)ccn1)c1ccc(Cl)cc1` (single isomer, unassigned; (+)) [Example 81, (+)-N-[4-(3-anilino-5-methyl-4-oxo-4,5,6,7-tetrahydro-1H-pyrrolo[3,2-c]pyridin-2-yl)pyridin-2-yl]-2-(4-chlorophenyl)propanamide], the IC50 was 4.33 nM in assay [1], 71.4 nM in assay [2], above 20 µM in assay [3] (setting [5]) and 8.47 nM in assay [4].
With `CC1Cc2[nH]c(-c3ccnc(NC(=O)Cc4ccc(F)cc4)c3)c(Nc3ccccc3)c2C(=O)N1C` (single isomer, unassigned; (+)) [Example 89, (+)-N-{4-[3-anilino-5,6-dimethyl-4-oxo-4,5,6,7-tetrahydro-1H-pyrrolo[3,2-c]pyridin-2-yl]pyridin-2-yl}-2-(4-fluorophenyl)acetamide], the IC50 in assay [1] came to 1.88 nM; in assay [2], 364 nM; in assay [3] (setting [6]) it was 6.05 µM; in assay [4], 5.72 nM.
In the case of `CC(C(=O)Nc1cc(-c2[nH]c3c(c2Nc2ccccc2)C(=O)N(C)C(C)C3)ccn1)c1ccc(F)cc1` (single isomer, unassigned; (+)) [Example 91, (+)-(2RS)—N-{4-[(6R*)-3-anilino-5,6-dimethyl-4-oxo-4,5,6,7-tetrahydro-1H-pyrrolo[3,2-c]pyridin-2-yl]pyridin-2-yl}-2-(4-fluorophenyl)propanamide], the IC50 in assay [1] was 4.73 nM; in assay [2] it was 693 nM; in assay [3] (setting [6]), above 20 µM; in assay [4], 8.83 nM.
For `CC(C(=O)Nc1cc(-c2[nH]c3c(c2Nc2ccccc2)C(=O)N(C)C(C)C3)ccn1)c1ccc(F)cc1` (single isomer, unassigned; (+)) [Example 92, (+)-N-{4-[3-anilino-5,6-dimethyl-4-oxo-4,5,6,7-tetrahydro-1H-pyrrolo[3,2-c]pyridin-2-yl]pyridin-2-yl}-2-(4-fluorophenyl)propanamide], the IC50 in assay [1] was 4.66 nM; in assay [2], 230 nM; in assay [3] (setting [6]) it was above 20 µM; in assay [4], 10.7 nM.
Turning to `CC(C(=O)Nc1cc(-c2[nH]c3c(c2Nc2ccccc2)C(=O)N(C)C(C)C3)ccn1)c1ccc(F)cc1` (single isomer, unassigned; (+)) [Example 96, (+)-N-{4-[3-anilino-5,6-dimethyl-4-oxo-4,5,6,7-tetrahydro-1H-pyrrolo[3,2-c]pyridin-2-yl]pyridin-2-yl}-2-(4-fluorophenyl)propanamide], the IC50 came to 5.37 nM in assay [1], 35.8 nM in assay [2], 7.04 µM in assay [3] (setting [6]) and 4.36 nM in assay [4].
With `CC1Cc2[nH]c(-c3ccnc(NC(=O)Cc4ccncc4)c3)c(Nc3ccccc3)c2C(=O)N1C` (single isomer, unassigned; (+)) [Example 98, (+)-N-{4-[(6R*)-3-anilino-5,6-dimethyl-4-oxo-4,5,6,7-tetrahydro-1H-pyrrolo[3,2-c]pyridin-2-yl]pyridin-2-yl}-2-(pyridin-4-yl)acetamide], the IC50 in assay [1] came to 4.16 nM; in assay [2], 149 nM; in assay [3] (setting [6]), 4.34 µM; in assay [4], 6.13 nM.
